Data from US12239132B2, “Compounds and methods for increasing soil nutrient availability” (SOUND AGRICULTURE COMPANY, priority 2018, dated 2025).

Tests used:
[1] = test system: soil consortia cultures; experiment: Phosphate solubilization in soil-inoculated NBRIP cultures; assay type: cell-based
Description: To select for the native soil microbial consortia that solubilize phosphorus, a small quantity of soil was inoculated into flask cultures of NBRIP media. Flasks were treated with increasing amounts of AB09 and grown at room temperature on orbital shakers for 4 days. The cleared supernatant of the soil cultures were quantified for available phosphorus using the malachite green method.
FIG. 3. AB09 induced phosphate solubilization activity occurs in a dose-dependent manner in soil consortia cultures. 50 mL of NBRIP growth medium was added to 250 mL baffled flasks, containing 500 mg of 2 mm particle-sized soil, to select for phosphate solubilizing microbes. Flasks with sterilized foam caps were placed on orbital shakers at 110 RPM for 4 days at room temperature. Orthophosphate was measured using the malachite-green phosphate method.
50 mL of NBRIP growth medium was added to 250 mL baffled flasks, containing 500 mg of 2 mm particle-sized soil, to select for phosphate solubilizing microbes. AB09 stock solution (10 mg/mL) was prepared in distilled water. Untreated controls received no AB09. […]
Flasks with sterilized foam caps were placed on orbital shakers at 110 RPM for 4 days at room temperature. […] Supernatant from samples were removed and placed into new microcentrifuge tubes for orthophosphate quantification using the malachite green method.

[2] = test system: lettuce; experiment: Field trials in lettuce; assay type: in vivo; settings: field trial
[3] = test system: Bacillus megaterium; experiment: Phosphate solubilization assay with Bacillus megaterium (liquid NBRIP, malachite green); assay type: cell-based; settings: 100 ug/mL; for clearing (consumption) of insoluble phosphate in culture tubes, qualitative: B. megaterium in NBRIP
Description: In some aspects, a compound disclosed herein, e.g., AB09, stimulates bacterial phosphate solubilization activity. […] Cultures of B. megaterium were grown in media containing only insoluble phosphorus with and without a compound such as AB09. At the start of the experiment, there was no detectable difference of orthophosphate levels in the growth media alone and media supplemented with B. megaterium and/or AB09. Orthophosphate was measured after 72 hours of bacterial growth. Specifically, A 5 mL culture of B. megaterium was seeded from a single colony into Nutrient Broth (NB) and grown overnight in a 30° C. shaker. The cell pellet was collected by centrifugation, washed twice and resuspended in water. The concentration of B. megaterium was measured using a Nanodrop OD600 reading. B. megaterium was inoculated into liquid NBRIP media, which contains insoluble tricalcium phosphate as its sole phosphorus source. The final concentration of B. megaterium in the NBRIP media was OD600=0.02 ([…]). NBRIP media was supplemented with ML in a 1% DMSO solution to a final concentration of 100 ug/ML or 1% DMSO (both were filter sterilized through a 0.2 uM filter). Cell counts at the start of the experiment (0 hours) and at 72 hours post inoculation were measured using dilution plating. At the experiment start and after 72 hours of growth, 1 mL of culture was collected from the culture tubes. The supernatant was collected by centrifugation (5 min at 13,000 rpm). The cleared supernatant was diluted […] in molecular grade water and used for orthophosphate analysis. The remaining 4 mL of supernatant were collected by centrifugation for pH readings. Orthophosphate was measured using the malachite-green phosphate method (BioAssay Systems Malachite Green Phosphate Assay Kit Catalog No: POMG-25H). Briefly, the sample is mixed with a solution of Malachite Green and molybdate, which forms a green complex with free orthophosphate from the sample. Data are quantified on a plate reader at 620 nm. Unknown samples were run with a standard curve of known concentrations of orthophosphate. […] Phosphate solubilization in NBRIP culture media is shown at experiment start (0 h) and after 72 hours of shaking at 30° C. The left axis corresponds to box plots and whisker plots of the concentration of solubilized phosphate in the bacterial supernatant. The right axis corresponds to the pH of the supernatant. n=7 culture tubes for each B. megaterium with and without ML, and n=3 culture tubes for no bacteria with and without AB09. The malachite green phosphate assay was performed in triplicate. […] In some instances, disclosed herein are experimental culture tubes of B. megaterium growing in NBRIP without ML (AB09; leftmost two tubes) and with 100 ug/mL ML (right three tubes).
A strain of Bacillus megaterium (B. megaterium) was isolated from Iowa field soil and confirmed its ability to solubilize phosphorus by observing a cleared zone (or halo) around B. megaterium colonies when grown on solid media (NBRIP+Agar) containing only in insoluble form of phosphorus, Ca3(PO4)2. Cultures of B. megaterium were then grown in liquid NBRIP (containing only insoluble Ca3(PO4)2) with and without AB09. The growth media supernatant was analyzed for orthophosphate at the start of the experiment (0 h) and after 72 hours of growth by the malachite green quantification method.
FIG. 1A illustrates phosphate solubilization in NBRIP culture media at experiment start (0 h) and after 72 hours of shaking at 30° C. The left axis corresponds to box plots and whisker plots of the concentration of available phosphate (orthophosphate) in the bacterial supernatant. […] The malachite green phosphate assay was performed in triplicate. FIG. 1B illustrates an example of experimental culture tubes of B. megaterium growing in NBRIP without AB09 (leftmost two tubes) and with 100 ug/mL AB09 (right three tubes). […]

[4] = test system: phosphate solubilizing bacteria (PSB); experiment: Halo assay of phosphate solubilizing bacteria on agar plates containing insoluble phosphate; assay type: cell-based; settings: AB09 treated PSB vs control treated PSB
From the text: Larger halos indicate higher microbial solubilization activity.

[5] = test system: soil consortia cultures; experiment: Acetylene reduction method in soil consortia nitrogen free cultures; assay type: cell-based; settings: 25 ug/mL, Burks-N, 72 h, control nd
Description: One flask culture per soil received an AB09 treatment and the other received a control treatment of water. After 72 h of growth, 5 mL of each culture were analyzed for nitrogenase activity using the acetylene reduction method. […] Soil from agricultural areas was air dried and sieved with a 2 mm sieve. Five hundred milligrams of dried, sieved soil was added to 50 mL of Burks-N media in a 250 mL baffled flask. AB09 was added to 25 ug/mL and water was added in equivalent amounts for controls. Flasks were topped with a foam plug and incubated at 30 C, shaking at 100 rpm. After 72 h, 5 mL of the soil culture was transferred to 20 mL autosampler vials and analyzed for ethylene gas with the acetylene reduction technique and GC/MS as described as above.

With `CC1=CC(Oc2c(C)occc2=O)OC1=O` (stereo not shown) [AB09, maltol lactone] as the compound, how does the “increase of phosphate concentration over the untreated control” value ([1]; highest treatment 25 ug/mL, 4 days, room temperature) read?
Its value is 2-3 fold.

What about the “ability of soil consortia cultures to solubilize phosphorus” value ([1]; increasing amounts of AB09, 4 days) of the same compound?
Its value is “enhanced by AB09 in a dose-responsive manner”.

And the “average size of lettuce heads” value [2]?
The value was “increased the average size”.

And the “increase in lettuce harvest weight” value [2]?
The value was 25%.

What about the “pH of the growth media (supernatant)” value ([3]; 72 hours, concurrent with phosphate solubilization increase) of the same compound?
The value was “decrease”.

And the “clearing (consumption) of insoluble phosphate in culture tubes, qualitative” value [3]?
Its value is “increased clearing”.

And the “clearing (consumption) of insoluble phosphate in culture tubes, qualitative” value ([3]; listed as ML)?
Its value is “Increased consumption”.

And the “average concentration of orthophosphate in B. megaterium cultures compared to control cultures” value ([3]; NBRIP media with insoluble Ca3(PO4)2, 72 hours)?
The value was “significantly increased”.

And the phosphate solubilization increase ([3]; NBRIP media, 72 hours, vs control B. megaterium cultures)?
The phosphate solubilization increase was “two-fold”.

And the “clearance halos around PSB colony” value [4]?
The value was “larger clearance”.

What about the “% Ethylene (nitrogenase activity)” value ([5]; Alpha soil) of the same compound?
Its value is 14.5%.

And the “% Ethylene (nitrogenase activity)” value ([5]; Bennet soil)?
Its value is 0.7%.

And the “% Ethylene (nitrogenase activity)” value ([5]; U of I soil)?
The value was 4.2%.
